Here are results for 15 compounds from US6750348B1, “Chemokine receptor binding heterocyclic compounds” (AnorMED, Inc., priority 1999, dated 2004).

By EC50 is commonly meant the concentration giving half of the maximal effect.

Common to all, as to format: cell-based
Experiment [1] relates to HIV-1 NL4.3 or IIIB. The experiment can be described thus: Inhibition of HIV-1 (NL4.3 or IIIB) replication in MT-4 cells (MTT). Conditions: Human immunodeficiency virus 1, IIIB, MT4, read-out: EC50, inhibition of HIV-1 NL4.3 or IIIB replication. A digest of the protocol: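 CXCR4-tropic virus infected MT-4 cells at MOI 0.01 (100× CCID50) across a range of compound concentrations, with cytotoxicity run in parallel. Viable cells counted by MTT after 5 days. EC50 is the concentration protecting 50% of infected cells from viral cytopathicity.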

Experiment [2] relates to SDF-1α induced Ca flux in SUP-T1 cells. Description: Inhibition of SDF-1α induced Ca flux in SUP-T1 cells (FLIPR). Conditions: Homo sapiens, at 20 μg/mL, read-out: inhibited SDF-1α induced Ca flux.
The subject of experiment [3] is HIV-1 BaL (CCR5 using). Description: Inhibition of HIV-1 (BaL) replication in PHA-stimulated PBMC's (MTT). The note with it: Human immunodeficiency virus 1, BAL, MTT assay. The procedure: Compounds were tested for their ability to inhibit HIV-1 replication in MT-4 cells or PBMC's (peripheral blood mononucleocytes) using published procedures (for example, see: Labrosse et al. J. Virol. 1998, 6381-6388; Simmons et al. J. Virol. 1998, 8453-8457; Donzella et al. Nature Medicine 1998, 72-77; Schols et al. J. Exp. Med. 1997, 1383-1388; De Clercq et al. Antiviral Res. 1997, 147-156; and Bridger et al. U.S. patent application Ser. No. 09/111,895). In addition to the above references, experimental methods for performing anti-viral assays can also be found in: Bridger et al. J. Med. Chem. 1995, 38, 366-378; Bridger et al. J. Med. Chem. 1996, 39, 109-119; Bridger et al. U.S. Pat. No. 5,698,546; Bridger et al. U.S. Pat. No. 5,583,131; Bridger et al. U.S. Pat. No. 5,817,807; De Clercq et al. Antimicrob. Agents and Chemother. 1994, 38, 668-674.
The HIV-1 strain BaL is M-tropic (macrophage tropic) strain that exclusively uses CCR5 as a co-receptor for entry into cells. PBMC's (from healthy donors) express all chemokine receptors including CXCR4 and CCR5.
Background: Tetrazolium assays rely on reduction of a dye to a coloured formazan, in cell work by metabolically active cells.

The test system of experiment [4] is RANTES induced Ca flux in U87.CCR5 cells. Description: Inhibition of RANTES induced Ca flux in U87.CCR5 cells (FLIPR). The note with it: U-87-CCR5, at 20 μg/mL, read-out: inhibited RANTES induced Ca flux. Here is the method: Loading dye: Fluo-3, AM (Molecular Probes F-1241) is dissolved in anhydrous DMSO and stored frozen in aliquots. To increase the solubility of the dye in the loading medium, 10% (w/v) pluronic acid (Molecular Probes F-127) is added to the Fluo-3 stock solution immediately before use.
HBSS+20 mM Hepes buffer+0.2% BSA, pH 7.4. HBSS 10× [(w/o phenol red and sodium bicarbonate (Gibco 14 065-049)]; Hepes buffer 1M (Gibco 15 630-056), BSA (Sigma A3675). The flux buffer is vacuum-filtered and stored refrigerated for a maximum of 5 days. Before use in the experiment, the buffer is warmed at 37° C. in a waterbath.
The test compounds were diluted in flux buffer and added to 4 wells of a black microplate (4 parallel measurements per compound).
The chemokines are diluted in flux buffer to concentrations that are 4-fold higher than the desired concentrations required for stimulation of the cells (i.e. 2.5 nM for SDF-1α and 0.6 nM for RANTES). The chemokines were added to untreated 96-well Sero well compound plates (International Medical, Sterilin code 611F96). In the negative control well's (baseline monitoring), flux buffer is added instead of chemokine. As a positive control to check for dye loading efficiency, 20 μM digitonin (final concentration) was also included. The agonist plate was incubated in the FLIPR (37° C.) for 15-30 min.
The FLIPR settings (camera exposure time and laser power) are adjusted to obtain initial fluorescence values between 8,000 and 10,000 units. After monitoring a 20 second-baseline, the agonist (chemokine) (50 μL) is added by automatic pipettor with black pipette tips. Fluorescence is measured simultaneously in all wells of the microplate every 2 seconds (first 2 min) and thereafter every 6 seconds (additional 2 min). The average ca-flux measured in each set of 4 identical wells (one test compound) was calculated by the FLIPR software.
U87.CCR5 cells were seeded into the black microplates (Costar 3603) on the day before the experiment. The culture medium was removed from the cells and 100 μL of loading medium (DMEM+10% FBS+4 μM Fluo-3, AM) was added to each well and the plate was incubate at 37° C. for 45 min. The loading medium was then removed an the cells were washed twice with flux buffer using the CELL WASH microplate washer (Labsystems) followed by incubation in flux buffer for 10 min. at room temperature (the washing procedure was repeated twice). Finally, the wash buffer was removed from the microplate wells and 150 μL of the test compound, diluted in flux buffer to the desired concentration. The microplate was then incubated in the FLIPR drawer for 10 min. prior to testing. Measurements were performed as described above.
The compounds of the current invention were tested for inhibition of RANTES induced Ca flux in U87.CCR5 cells.

With `c1ccc(CCN(Cc2ccc(CNCc3ccccn3)cc2)C2CCCc3cccnc32)nc1` (centres unmarked) [Example 66, N-(2-pyridinylmethyl)-N′-[2-(2-pyridinyl)ethyl]-N′-(5,6,7,8-tetrahydro-8-quinolinyl)-1,4-benzenedimethanamine], the EC50 in experiment [1] and in experiment [3] was less than 20 µg/mL each time. Further, the inhibition at 20 µg/mL in experiment [2] was greater than 20%.
`c1ccc(-c2ccc3c(n2)C(N(Cc2ccc(CNCc4ccccn4)cc2)Cc2ccccn2)CCC3)cc1` (centres unmarked) [Example 12, N,N′-bis(2-pyridinylmethyl)-N′-(2-phenyl-5,6,7,8-tetrahydro-8-quinolinyl)-1,4-benzenedimethanamine]: the EC50 in experiment [1] and in experiment [3] was less than 20 µg/mL throughout. In experiment [2], the inhibition at 20 µg/mL is greater than 20%.
With `Fc1cccc2c1CC(NCc1ccc(CNCc3ccccn3)cc1)CC2` (centres unmarked) [Example 43, N-(2-pyridinylmethyl)-N′-(8-Fluoro-1,2,3,4-tetrahydro2-naphthalenyl)-1,4-benzenedimethanamine], the EC50 in experiment [1] and in experiment [3] was less than 20 µg/mL throughout. In addition, the inhibition at 20 µg/mL in experiment [2] is greater than 20%.
`c1ccc(CNCc2ccc(CN(Cc3ccco3)C3CCCc4cccnc43)cc2)nc1` (centres unmarked) [Example 29, N-(2-pyridinylmethyl)-N′-[2-furanylmethyl]-N′-(5,6,7,8-tetrahydro-8-quinolinyl)-1,4-benzenedimethanamine]: the EC50 in experiment [1] and in experiment [3] was less than 20 µg/mL in each case. In addition, in experiment [2], the inhibition at 20 µg/mL was greater than 20%.
As for `c1ccc(CNCc2ccc(CNc3cccc4ccccc34)cc2)nc1` [Example 5, N-(2-pyridinylmethyl)-N′-(1-naphthalenyl)-1,4-benzenedimethanamine], the inhibition at 20 µg/mL in experiment [4] is greater than 20%. The EC50 in experiment [3] was less than 20 µg/mL.
`Oc1cccc2c1CC(N(Cc1ccc(CNCc3ccccn3)cc1)Cc1ncc[nH]1)CC2` (centres unmarked) [Example 42, N-(2-pyridinylmethyl)-N′-(1H-imidazol-2-ylmethyl)-N′-(8-hydroxy-1,2,3,4-tetrahydro-2-naphthalenyl)-1,4-benzenedimethanamine]: the EC50 in experiment [1] and in experiment [3] was less than 20 µg/mL throughout.
As to `COc1ccc(CCN(Cc2ccc(CNC3CCCc4cccnc43)cc2)Cc2ccccn2)cc1` (centres unmarked) [Example 91, N-(2-pyridinylmethyl)-N-[2-(4-methoxyphenyl)ethyl]-N′-(5,6,7,8-tetrahydro-8-quinolinyl)-1,4-benzenedimethanamine], the EC50 in experiment [1] and in experiment [3] was less than 20 µg/mL in each case.
Take `c1ccc(-c2ccc3c(n2)C(NCc2ccc(CNCc4ccccn4)cc2)CCC3)cc1` (centres unmarked) [Example 11, N-(2-pyridinylmethyl)-N′-(2-phenyl-5,6,7,8-tetrahydro-8-quinolinyl)-1,4-benzenedimethanamine]: in experiment [4], the inhibition at 20 µg/mL was greater than 20%. Further, the EC50 in experiment [1] and in experiment [3] was less than 20 µg/mL each time.
For the compound `N[C@@H]1CCC[C@H]1N(Cc1ccc(CNCc2ccccn2)cc1)C1CCCc2cccnc21` (relative stereo) [Example 71, N-(2-pyridinylmethyl)-N′-(trans-2-aminocyclopentyl)-N′-(5,6,7,8-tetrahydro-8-quinolinyl)-1,4-benzenedimethanamine], the inhibition at 20 µg/mL in experiment [4] is greater than 20%. The EC50 in experiment [1] and in experiment [3] was less than 20 µg/mL each time.
Regarding `c1ccc(CNCc2ccc(CN(Cc3c[nH]cn3)C3CCCc4cccnc43)cc2)nc1` (centres unmarked) [Example 17, N-(2-pyridinylmethyl)-N′-(1H-imidazol-4-ylmethyl)-N′-(5,6,7,8-tetrahydro-8-quinolinyl)-1,4-benzenedimethanamine], the EC50 in experiment [1] and in experiment [3] was less than 20 µg/mL throughout. The inhibition at 20 µg/mL in experiment [2] is greater than 20%.
As for `c1ccc(CNCCN(Cc2ccc(CNCc3ccccn3)cc2)C2CCCc3cccnc32)cc1` (centres unmarked) [Example 30, N-(2-pyridinylmethyl)-N′-[2-[(phenylmethyl)amino]ethyl]-N′-(5,6,7,8-tetrahydro-8-quinolinyl)-1,4-benzenedimethanamine], the inhibition at 20 µg/mL in experiment [4] and in experiment [2] was greater than 20% each time. For the same compound, the EC50 in experiment [1] and in experiment [3] was less than 20 µg/mL each time.
Turning to `c1ccc(CNCc2ccc(CN(C3CCNCC3)C3CCCc4cccnc43)cc2)nc1` (centres unmarked) [Example 33, N-(2-pyridinylmethyl)-N′-4-piperidinyl-N′-(5,6,7,8-tetrahydro-8-quinolinyl)-1,4-benzenedimethanamine], the EC50 in experiment [1] and in experiment [3] was less than 20 µg/mL each time.
For `CC1c2ccccc2CCC1NCc1ccc(CNCc2ccccn2)cc1` (centres unmarked) [Example 37, N-(2-pyridinylmethyl)-N′-(1-methyl-1,2,3,4-tetrahydro-2-naphthalenyl)-1,4-benzenedimethanamine], the EC50 in experiment [1] and in experiment [3] was less than 20 µg/mL throughout. Besides, the inhibition at 20 µg/mL in experiment [2] is greater than 20%.
Consider `c1ccc(CNCc2ccc(CN(Cc3ccccn3)CC3CCCc4cccnc43)cc2)nc1` (centres unmarked) [Example 88, N,N′-bis(2-pyridinylmethyl)-N′-[(5,6,7,8-tetrahydro-8-quinolinyl)methyl]-1,4-benzenedimethanamine], for which the EC50 in experiment [1] and in experiment [3] was less than 20 µg/mL each time. Besides, in experiment [2], the inhibition at 20 µg/mL is greater than 20%.
Consider `c1ccc(CNCc2ccc(CN(C3CCNC3)C3CCCc4cccnc43)cc2)nc1` (centres unmarked) [Example 32, N-(2-pyridinylmethyl)-N′-3-pyrrolidinyl-N′-(5,6,7,8-tetrahydro-8-quinolinyl)-1,4-benzenedimethanamine], for which the EC50 in experiment [1] and in experiment [3] was less than 20 µg/mL throughout.
